Experimental data: patent US6906205B2, “Spiro and dispiro 1,2,4-trioxolane antimalarials” (Medicines for Malaria Venture MMV, priority 2002, dated 2005)

What was measured:
[1] = tested on: ANKA strain of P. berghei; test: single dose STI in vivo screen in infected mice; set-up: species or system Plasmodium berghei
How it was run: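 Groups of 3-5 Moro SPF or NMRI mice infected with the ANKA strain of P. berghei received a single dose of trioxolane on day one post-infection. The compound was given in 3% ethanol and 7% Tween 80 or in SSV (0.5% w/v CMC, 0.5% v/v benzyl alcohol, 0.4% v/v Tween 80, 0.9% w/v sodium chloride in water). Antimalarial activity was scored as percent reduction in parasitemia on day three and as survival time versus untreated controls. Survival to day 30 counted as cure.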

[2] = tested on: parasitemia (malaria infection); test: onset of action and recrudescence experiments; format: in vivo; conditions: single 100 mg/kg po (SSV) on day +3 post-infection; recrudescence = >5% parasitemia; followed up to 60 days; (n/5) = animals
Description: The onset of drug action was determined after a single fixed dose of 100 mg/kg (SSV vehicle) po to groups of five animals on day +3 post-infection (day 0).

[3] = tested on: ANKA strain of Plasmodium berghei; test: single dose ED50/ED90/ED99 determinations in infected mice; format: in vivo
How it was run: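 Mice (Moro SPF or NMRI, n=3 per group) infected with P. berghei ANKA received a single dose on day 1 post-infection, vehicle 0.5% CMC/0.5% benzyl alcohol/0.4% Tween 80/0.9% NaCl in water. Read-out is percent reduction in parasitemia on day 3; ED values by nonlinear fitting.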

[4] = tested on: P. berghei ANKA strain; test: treatment: 3x10 mg/kg p.o. divided dose vs 1x30 mg/kg po single dose in infected mice; format: in vivo, Plasmodium berghei; conditions: for Activity (%) p.o. SSV: percent reduction of parasitemia day 4
Description: Moro NMRI male mice (Fü Albino specific pathogen free) weighing 18±2 g were infected intravenously (i.v.) with 2×10^7 P. berghei ANKA strain-infected erythrocytes from donor mice on day 0 of the experiment. From donor mice with circa 30% parasitemia, heparinized blood was taken and diluted in physiological saline to 10^8 parasitized erythrocytes per ml. An aliquot (0.2 ml) of this suspension was injected i.v. into experimental and control groups of mice. […] Throughout the experiments, mice were kept in groups of three or five animals in Makrolon type II cages in an air-conditioned animal room at 22 to 23° C.
They were administered per os (p.o.) in a total volume of 0.01 ml per gram of mouse. The activity of the compound was determined by a variety of methods outlined in subsequent sections. Survival time was also recorded, and survival to day 30 post-infection was considered to be a cure.
The first experiment conducted consisted of administration of a divided 3×10 mg/kg p.o. dose administered on days 1, 2, and 3 post-infection vs. a single 1×30 mg/kg po dose administered on day 1 post-infection. On day 4 post-infection, blood smears of all animals were prepared and stained with Giemsa. […] Compounds were administered orally in the SSV vehicle.

[5] = tested on: P. berghei ANKA strain; test: treatment: 3x3 mg/kg and 3x1 mg/kg po divided doses in infected mice; format: in vivo, Plasmodium berghei; conditions: for Activity (%) p.o. SSV: percent reduction of parasitemia day 4
How it was run: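 NMRI mice infected i.v. with 2×10^7 P. berghei ANKA-parasitized erythrocytes on day 0, then dosed orally in SSV vehicle at 3×3 or 3×1 mg/kg on days 1–3. Day-4 Giemsa smears gave percent parasitemia reduction versus untreated controls; survival to day 30 counted as cure.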

[6] = tested on: P. berghei ANKA strain; test: prophylactic activity, single 100 mg/kg po dose before infection; format: in vivo, Plasmodium berghei; conditions: reduction of parasitemia day 3 post-infection
Description: Moro NMRI male mice (Fü Albino specific pathogen free) weighing 18±2 g were infected intravenously (i.v.) with 2×10^7 P. berghei ANKA strain-infected erythrocytes from donor mice on day 0 of the experiment. From donor mice with circa 30% parasitemia, heparinized blood was taken and diluted in physiological saline to 10^8 parasitized erythrocytes per ml. An aliquot (0.2 ml) of this suspension was injected i.v. into experimental and control groups of mice. In untreated control mice, parasitemia rose regularly to 40 to 50% by day 3 post-infection and 70 to 80% by day 4 post-infection. The mice died between days 5 and 7 post-infection. Throughout the experiments, mice were kept in groups of three or five animals in Makrolon type II cages in an air-conditioned animal room at 22 to 23° C. A diet with p-aminobenzoic acid (PABA) of 45 mg (NAFAG FUTTER© food N^o 9009 PAB-45) per kg of body weight, and tap water is available ad libitum.
OZ compounds were prepared at an appropriate concentration, either as a solution or a suspension containing SSV (0.5% w/v CMC, 0.5% v/v benzyl alcohol, 0.4% v/v Tween 80, and 0.9% w/v sodium chloride in water). They were administered per os (p.o.) in a total volume of 0.01 ml per gram of mouse. The activity of the compound was determined by a variety of methods outlined in subsequent sections. Survival time was also recorded, and survival to day 30 post-infection was considered to be a cure.
Prophylactic activities of the compounds were compared after administering po single dose of 100 mg/kg to different groups of five animals at various times before infection. All groups including an untreated control group, were then infected at the same time. Parasitemia was determined for each animal on day 3 post-infection, and percent of reduction of the level of parasitemia compared to levels for animals given no drug is determined.

[7] = single dose po in SSV, mice, percent reduction in parasitemia on day three post-infection
[8] = 3 × 10 mg/kg days 1, 2, 3 post-infection
[9] = 3 × 1 mg/kg days 1, 2, 3 post-infection
[10] = 3 × 3 mg/kg days 1, 2, 3 post-infection

C[C@H]1[C@H](OC(=O)CCC(=O)O)O[C@@H]2O[C@@]3(C)CC[C@H]4[C@H](C)CC[C@@H]1[C@@]24OO3 [AS, artesunate, reference compound]
Activity (%) 3 mg/kg SSV po ([1]; percent reduction in parasitemia day 3 post-infection, single 3 mg/kg po in SSV): 66% | Activity (%) 10 mg/kg SSV po ([1]; percent reduction in parasitemia day 3 post-infection, single 10 mg/kg po in SSV): 87% | Survival (days) 10 mg/kg SSV po ([1]; single 10 mg/kg po in SSV): 7.0 days | Time of Recrudescence [2]: 8.6 days | ED50 ([3]; Plasmodium berghei, po): 4.7 mg/kg | ED90 [3, 7]: 19 mg/kg | ED99 [3, 7]: 60 mg/kg | Activity (%) p.o. SSV ([4]; 1 × 30 mg/kg single dose day 1 post-infection): 83.83% | Survival (days) p.o. SSV [4, 8]: 11 days | Activity (%) p.o. SSV [4, 8]: 98.62% | Cures ([4]; 3 × 10 mg/kg, survival to day 30 post-infection = cure, cured/treated mice): 0/5 | Survival (days) p.o. SSV [5, 9]: 6.8 days | Activity (%) p.o. SSV [5, 9]: 39% | Survival (days) p.o. SSV [5, 10]: 9.4 days | Activity (%) p.o. SSV [5, 10]: 78% | Prophylactic Activity (%) ([6]; single 100 mg/kg po 24 h before infection): 6.28% | Prophylactic Activity (%) ([6]; single 100 mg/kg po at 0 h): 92.44%
